Molecules are shown by their SMILES.

The assay deals with T1, ctdWDR91 (Homo sapiens, UniProt A4D1P6).
T1 sequence (A4D1P6 392-747): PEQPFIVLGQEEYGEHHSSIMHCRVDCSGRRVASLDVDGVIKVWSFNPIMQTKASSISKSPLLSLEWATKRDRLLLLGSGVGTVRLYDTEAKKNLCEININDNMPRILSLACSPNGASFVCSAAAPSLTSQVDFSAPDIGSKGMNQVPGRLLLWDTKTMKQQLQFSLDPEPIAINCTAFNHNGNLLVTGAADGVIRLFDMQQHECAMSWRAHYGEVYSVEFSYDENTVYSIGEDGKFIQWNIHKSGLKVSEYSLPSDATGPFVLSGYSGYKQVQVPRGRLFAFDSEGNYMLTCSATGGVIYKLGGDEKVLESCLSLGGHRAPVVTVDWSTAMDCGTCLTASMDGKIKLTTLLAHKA
The experiment in a line: biochemical.
With `O=C(Nc1cccc2cnccc12)c1cccc([N+](=O)[O-])c1` [MRGG044720b], the Kd is > 45 µM.
In the case of `COc1cc(C)nc(NC(=O)c2ccoc2C2CC2)n1` [MRGG044772b], the Kd was > 45 µM.
In the case of `Cc1cc(N2CCN(C(=O)c3cc(F)c(F)cc3[N+](=O)[O-])CC2)c(F)cc1[N+](=O)[O-]` [MRGG044777a], the Kd was > 45 µM.
With `O=[N+]([O-])c1ccc(N2CCCC2)cc1NCc1ccc(Cl)cc1` [MRGG044778a], the Kd is > 45 µM.
With `Cc1c(C#N)c2ccccc2n1CC(=O)N1CCc2ccccc2C1` [MRGG044779a], the Kd is > 45 µM.
Consider `O=C(NCc1ccc2c(c1)OCO2)c1ccc2snnc2c1` [MRGG044780a], for which binding was put at a Kd of 17 µM.
As for `O=c1c2c(F)cccc2ncn1CC1CCN(C2CC2)C1` (stereo not drawn) [MRGG044781a], the Kd was > 45 µM.
Next, `O=C(NCc1ccc2nonc2c1)c1cn2ccsc2n1` [MRGG044782a]: > 45 µM; `O=C(NC1CC2(CCCC2)Oc2ccccc21)c1cnc2ccccn2c1=O` (stereo not drawn) [MRGG044783a]: > 45 µM; `Cc1c(C(=O)NCc2n[nH]c(N)n2)n(C)c2ccc(F)cc12` [MRGG044784a]: > 45 µM.
In the case of `CN(CCc1ccccc1)C(=O)c1nc2sccn2c1CN1CC[C@H](O)C1` [MRGG044785a], the Kd is > 45 µM.
With `Cc1ccccc1N1CCC(CNC(=O)Cc2ccc(C(F)(F)F)cc2)C1` (stereo not drawn) [MRGG044786a], the Kd is > 45 µM.
Take `COc1cccc2c1OCCCN(C(=O)c1cn3ccsc3n1)C2` [MRGG044787a]: the Kd was > 45 µM.
For `O=C(NC1CCc2ccccc21)c1ccc(Cl)cc1` (stereo not drawn) [MRGG044788a], the Kd is > 45 µM.
For the compound `Cc1cc2ccccc2n1CC(=O)Nc1cc(C(N)=O)ccc1N1CCCC1` [MRGG044789a], the Kd was > 45 µM.
With `O=C(Cc1cn2ccsc2n1)NC1(c2ccc(Cl)cc2)CC1` [MRGG044790a] the figure was > 45 µM; with `CC(NC(=O)c1ccc2c(c1)NC(=O)CO2)c1cccc(Cl)c1` (stereo not drawn) [MRGG044791a], 36 µM; with `NC(=O)[C@]12CCOC[C@H]1CN(C(=O)c1cccc(N3CCCC3)c1)C2` [MRGG044792a], > 45 µM.
Turning to `CNC(=O)[C@@H](NC(=O)c1ccc2[nH]ccc2n1)C(C)C` [MRGG044793a], the Kd was > 45 µM.
Turning to `COc1ccc(C(NC(=O)CN2CCn3ncnc3C2)c2ccc(OC)cc2)cc1` [MRGG044794a], the Kd is > 45 µM.
As for `Fc1ccc(N2CCC(CNc3ncnc4ccncc34)C2)cc1F` (stereo not drawn) [MRGG044795a], the Kd is > 45 µM.
Next, `CC(NC(=O)c1cccc(N2CCCC2)c1)(C(=O)O)c1ccccc1` (stereo not drawn) [MRGG044796a]: > 45 µM.
With `CN(C)C1(CNC(=O)c2ccc3oc(=O)[nH]c3c2)Cc2ccccc2C1` [MRGG044797a] the figure was > 45 µM.
`Cc1cc(C#N)nc(NC2CC(C)N(C3CC3)C2)n1` (stereo not drawn) [MRGG044798a]: the Kd was > 45 µM.
On to `CN(C)c1nc2ccc(NCc3cc4c(cc3O)OCO4)cc2o1` [MRGG044799a], for which the Kd is > 45 µM.
Take `O=C1Cc2ccc(C(=O)NC3Cc4ccccc4C3O)cc2N1` (stereo not drawn) [MRGG044800a]: the Kd was > 45 µM.
Regarding `c1ccc2oc(-c3n[nH]cc3CNCC3CCN(C4CC4)C3)cc2c1` (stereo not drawn) [MRGG044801a], the Kd was > 45 µM.
For the compound `CC1CN(C2CC2)CC1NCc1ccccc1-n1ccnc1` (stereo not drawn) [MRGG044802a], the Kd was > 45 µM.
Turning to `CC1CN(C2CC2)CC1NS(=O)(=O)c1cnn(-c2ccccc2)c1` (stereo not drawn) [MRGG044803a], the Kd was > 45 µM.
With `N#Cc1cc(CNc2ccccc2CN2CCNC2=O)ccc1F` [MRGG044804a], the Kd was > 45 µM.
Consider `CC1CCN(c2ccc(C(=O)N3c4ccccc4CC3CO)cc2)C1` (stereo not drawn) [MRGG044805a], for which the Kd is > 45 µM.
Turning to `N#Cc1ccc(NCc2cc(Cl)cc(C(F)(F)F)c2)cn1` [MRGG044806a], the Kd was > 45 µM.
For `O=C(NC1CCN(c2cccc(Cl)c2)C1)c1cccc2c1OCO2` (stereo not drawn) [MRGG044807a], the Kd is > 45 µM.
With `O=C(c1snc(O)c1Cl)N1CCC2(CCc3ccccc3O2)C1` (stereo not drawn) [MRGG044808a] the figure was > 45 µM.
Turning to `CC(C)(C)OC(=O)N1C[C@@H](Cc2ccccc2)[C@H](O)C1` [MRGG044809a], the Kd was > 45 µM.
For the compound `N#Cc1cn(CC2CCN(c3ccccc3)C2)c(=O)[nH]c1=O` (stereo not drawn) [MRGG044810a], the Kd is > 45 µM.
Turning to `COc1cccc(N2CCC(CNC(=O)c3cccc(F)c3)C2)c1` (stereo not drawn) [MRGG044811a], the Kd was > 45 µM.
With `N#Cc1cc(Br)cc(N2CCCC2)c1` [MRGG044812a], the Kd was > 45 µM.
Take `Cc1nc(N(C)C)sc1CCNc1cc(C(F)(F)F)cc(C#N)n1` [MRGG044814a]: the Kd was > 45 µM.
As to `NC12CCCC1CN(C(=O)c1nccc3cccnc13)C2` (stereo not drawn) [MRGG044815a], the Kd is > 45 µM.
Next, `O=C(NCC1CCN(C2CC2)C1)c1ccc(Cl)cc1` (stereo not drawn) [MRGG044816a]: > 45 µM.
For `CC(C)(C)OC(=O)N1CCC2(CC(N)c3ccccc3O2)C1` (stereo not drawn) [MRGG044817a], the Kd was > 45 µM.
With `Cc1ccc(N)cc1C(=O)N1C2C=C(c3ccccc3)CC1CC2` (stereo not drawn) [MRGG044818aAD] the figure was > 45 µM; with `CN(CC1CCN(Cc2ccccc2)C1)C(=O)Cc1cccc(O)c1` (stereo not drawn) [MRGG044819a], > 45 µM; with `N#Cc1cccc(CNC(=O)C2=NN(c3ccccc3)C(=O)CN2)c1` [MRGG044820a], > 45 µM.
On to `CC(NC(=O)c1ccc2c(=O)n3c(nc2c1)CCC3)c1ccc(Cl)cc1` (stereo not drawn) [MRGG044821a], for which the Kd is > 45 µM.
On to `CCC(NC(=O)CN1CCn2cncc2C1)c1ccc(Cl)cc1` (stereo not drawn) [MRGG044822a], for which the Kd was > 45 µM.
For `CC(NC(=O)C1Cc2ccccc2O1)c1cccc(N2CCCC2)c1` (stereo not drawn) [MRGG044823a], the Kd is > 45 µM.
Turning to `CCC(NC(=O)c1ccc(S(=O)(=O)NC2CC2)cc1)c1ccc(Br)cc1` (stereo not drawn) [MRGG044824a], the Kd is > 45 µM.
Turning to `O=C(NCCc1ccc(O)c(O)c1)Nc1cccc(N2CCNC2=O)c1` [MRGG044825a], the Kd is > 45 µM.
With `CC1c2cccn2CCN1C(=O)c1cc(Br)cc(N2CCCC2)c1` (stereo not drawn) [MRGG044826a] the figure was > 45 µM.
As to `CC1CN(C2CC2)CC1NC(=O)c1cc2cc(Br)ccc2o1` (stereo not drawn) [MRGG044827a], the Kd is > 45 µM.
On to `O=C(Nc1ccc2oc(=O)ccc2c1)c1cc(F)c(F)cc1[N+](=O)[O-]` [MRGG044828a], for which the Kd is > 45 µM.
As to `Cc1cc(NCC2CCN(C3CC3)C2)nc(-c2cccc([N+](=O)[O-])c2)n1` (stereo not drawn) [MRGG044829a], the Kd is > 45 µM.
Turning to `c1nc(NC2CCN(C3CC3)C2)c2ccsc2n1` (stereo not drawn) [MRGG044830a], the Kd is > 45 µM.
With `O=[N+]([O-])c1ccc(N2CCC(CNc3ccccn3)C2)c2ccncc12` (stereo not drawn) [MRGG044831a], the dissociation constant Kd was > 45 µM.
With `O=C(NC(CO)c1ccc(Cl)cc1)c1cccc2cn[nH]c12` (stereo not drawn) [MRGG044832a] the figure was > 45 µM; with `Cc1ccc(C(=O)NC(c2ccc(Cl)cc2)C2CC2)cc1[N+](=O)[O-]` (stereo not drawn) [MRGG044833a], > 45 µM; with `CCOc1ccc2c(c1)C(NC(=O)c1cn3ccnc3s1)CCO2` (stereo not drawn) [MRGG044834a], > 45 µM.
For `c1ccc2c(c1)OCCCC2NC1CCN(C2CC2)C1` (stereo not drawn) [MRGG044835a], the Kd is > 45 µM.
Take `CC(NC(=O)c1ccc(CNC(N)=O)cc1)c1ccc(Cl)c(Cl)c1` (stereo not drawn) [MRGG044836a]: the Kd was > 45 µM.
With `CC(=O)N1CCCC(C(=O)N(C)CCc2ccc(F)cc2)C1` (stereo not drawn) [MRGG044837a], the Kd was > 45 µM.
Turning to `Cn1ccc(C(=O)Nc2ccc(N3CCCCC3)c3ccncc23)cc1=O` [MRGG044838a], the Kd was > 45 µM.
With `CC(NC(=O)CN(C)Cc1ccc(Cl)c(Cl)c1)c1ccccc1` (stereo not drawn) [MRGG044839a], the Kd was > 45 µM.
With `NC(=O)C1=NOC(CNC(=O)NCC2CCN(c3ccccc3)C2)C1` (stereo not drawn) [MRGG044840a] the figure was > 45 µM; with `COC(=O)c1ccccc1NC(=O)c1ccc2nnsc2c1` [MRGG044841a], > 45 µM; with `CN(Cc1ccc(Cl)c(Cl)c1)C(=O)COC(=O)C=Cc1ccc(O)c(O)c1` [MRGG045262a], > 45 µM.
For `COC(=O)c1ccc(C(=O)N2C3CCC2CN(C)C3)cn1` [MRGG045263a], the Kd is > 45 µM.
Next, `COCC1CCN(c2ccc(C(=O)N3C[C@@H]4C[C@H]3CN4C3CC3)cc2)C1` (stereo partly drawn) [MRGG045264a]: > 45 µM; `NC(=O)C1(NC(=O)c2ccc3cccnc3c2)Cc2ccccc2C1` [MRGG045265a]: > 45 µM; `CN1C[C@@H]2CN(C(=O)c3cc(Br)c([N+](=O)[O-])[nH]3)C[C@@H]2C1` [MRGG045266a]: > 45 µM.
Take `O=C(NC1(c2ccc(F)cc2)COC1)c1ccc2cnccc2c1` [MRGG045267a]: the Kd was > 45 µM.
Take `CN(CCc1ccccc1F)C(=O)c1cnc2sccn12` [MRGG045268a]: the Kd was > 45 µM.
Next, `CCN(CC(=O)NCc1cc(Cl)c(Cl)cc1Cl)C1CC1` [MRGG045269a]: > 45 µM.
Regarding `CN(CCCc1ccccc1)C(=O)c1cn2ccnc2s1` [MRGG045270a], the Kd was > 45 µM.
In the case of `CN1CCC2(CCCN(C(=O)c3cccnc3C(N)=O)C2)C1` (stereo not drawn) [MRGG045271a], the Kd was > 45 µM.
Consider `O=C(NC(CCO)c1ccc(Cl)cc1)c1ccc(CN2CCCC2=O)cc1` (stereo not drawn) [MRGG045272a], for which the Kd was > 45 µM.
In the case of `O=C(NC(CO)C(O)c1ccc(Cl)cc1)c1ccc2ccncc2c1` (stereo not drawn) [MRGG045273a], the Kd was > 45 µM.
With `CN(Cc1ccc(-c2ccc(Cl)cc2)o1)C(=O)CN1C(=O)c2cccnc2C1=O` [MRGG045274a], the Kd was > 45 µM.
With `COc1ccc(C(NC(=O)C2CC(C)=NO2)c2ccc(Cl)cc2)cc1` (stereo not drawn) [MRGG045275a] the figure was > 45 µM; with `CN1CCOC(C(NC(=O)c2cncc3cnccc23)c2ccc(Cl)cc2)C1` (stereo not drawn) [MRGG045276a], > 45 µM.

For the origin of these results see article doi:10.1101/2023.08.21.552681v1 (biorxiv, 2023).
